Assay results as given in patent publication US8802664B2 (Bioproject, priority 2010, dated 2014).

Experiments:
[1] = target: T1, human H4 receptor (Homo sapiens, UniProt Q9H3N8); test: [3H]Histamine binding on membranes of CHO cells stably expressing human H4 receptor
T1 construct: expressed in transfected cells
Procedure, shortened: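 Nonspecific signal was taken as that remaining with 10 μM JNJ 7777120 present. Assays contained 20 μg CHO-derived hH4 membrane protein in Tris/HCl–EDTA buffer (pH 7.4) and were terminated on polyethyleneimine-soaked filters, with bound tritium quantified by scintillation.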

| melting point [°C] | Ki or IC50 activity class [1] [nM] | SMILES |
| --- | --- | --- |
| 82 | < 30 | CN1CCC(OC(c2cccc(C#CCCCN)c2)c2nc3ccccc3[nH]2)CC1 (single isomer, unassigned) [Example 566, 5-{3-[(1H-benzimidazol-2-yl)(1-methylpiperidin-4-yloxy)methyl]phenyl}pent-4-ynylamine] |
| 232 | < 30 | CN1CCC(OC(c2nc3ccccc3[nH]2)c2cc(Br)ccc2F)CC1 (stereo not shown) [Example 555] |
| 65 | < 30 | CN1CCC(OC(c2cccc(SCCNC(=N)NC#N)c2)c2nc3ccccc3[nH]2)CC1 (stereo not shown) [Example 318, N-(2-{3-[(1H-benzimidazol-2-yl)(1-methylpiperidin-4-yloxy)methyl]phenylsulfanyl}ethyl)-N′-cyanoguanidine] |
| 105 | < 30 | CCc1cccc(C(OC2CCN(C)CC2)c2nc3ccccc3[nH]2)c1O (stereo not shown) [Example 616] |
| 161 | < 1000 | CN1CCC(OC(c2nc3ccccc3[nH]2)c2cc(Cl)cc(Cl)c2O)CC1 (stereo not shown) [Example 580] |
| 60 | < 30 | CCCNC(=O)c1cccc(C(OC2CCN(C)CC2)c2nc3ccccc3s2)c1 (stereo not shown) [Example 220, 3-[benzothiazol-2-yl(1-methylpiperidin-4-yloxy)methyl]-N-propylbenzamide] |
| 131 | < 1000 | CN1CCC(OC(c2cccc(C#CC3CNC3)c2)c2nc3ccccc3[nH]2)CC1 (stereo not shown) [Example 388, 2-[(3-azetidin-3-ylethynylphenyl)(1-methylpiperidin-4-yloxy)methyl]-1H-benzimidazole] |
| 201 | < 30 | CN1CCC(OC(c2cccc(O)c2)c2nc3ccccc3s2)CC1 (stereo not shown) [Example 62, 3-[benzothiazol-2-yl(1-methylpiperidin-4-yloxy)methyl]phenol] |
| 145 | < 30 | CN1CCC(OC(c2nc3ccccc3[nH]2)c2cccc(F)c2O)CC1 (stereo not shown) [Example 581] |
| 173.5 | < 30 | CN1CCC(OC(c2cccc(I)c2)c2nc3ccccc3[nH]2)CC1 (stereo not shown) [Example 51, 2-[(3-iodophenyl)(1-methylpiperidin-4-yloxy)methyl]-1H-benzimidazole] |
| 135 | < 1000 | CCCOc1cccc(C(OC2CCN(C)CC2)c2nc3ccccc3[nH]2)c1 (stereo not shown) [Example 49, 2-[(1-methylpiperidin-4-yloxy)(3-propoxyphenyl)methyl]-1H-benzimidazole] |
| 130 | < 300 | CN1CCC(OC(c2nc3ccccc3[nH]2)c2cc(C(C)(C)c3ccccc3)ccc2O)CC1 (stereo not shown) [Example 604] |
| 90 | < 30 | CN1CCC(NC(c2cccc(C(F)(F)F)c2)c2nc3ccccc3[nH]2)CC1 (stereo not shown) [Example 59, [(1H-benzimidazol-2-yl)(3-trifluoromethylphenyl)methyl](1-methylpiperidin-4-yl)amine] |
| 90 | < 30 | CCCOc1cccc(C(NC2CCN(C)CC2)c2nc3ccccc3s2)c1 (stereo not shown) [Example 42, [benzothiazol-2-yl(3-propoxyphenyl)methyl](1-methylpiperidin-4-yl)amine] |
| 129 | < 30 | CN1CCC(OC(c2nc3ccccc3[nH]2)c2c(O)cccc2F)CC1 (stereo not shown) [Example 582] |
| 102 | < 300 | Cc1ccc(C(OC2CCN(C)CC2)c2nc3ccccc3[nH]2)cc1 (stereo not shown) [Example 177, 2-[(1-methylpiperidin-4-yloxy)-p-tolyl-methyl]-1H-benzimidazole] |
| 204 | < 300 | CN1CCC(OC(c2nc3ccccc3[nH]2)c2cccc(SCCN)c2F)CC1 (stereo not shown) [Example 352, 2-{3-[(1H-benzimidazol-2-yl)(1-methylpiperidin-4-yloxy)methyl]-2-fluorophenylsulfanyl}ethylamine] |
